# Laboratory results from patent publication US7160729B2, “Method for detecting diseases that are associated with defects of cystic fibrosis transmembrane conductance regulator (CFTR) protein” (priority 2002, dated 2007).
# “Also recorded” adds a separate entry of the source.
# Legend:
# [1] = system: blood cells; CFTR dependent ion channels (SDAC); test: Hemolysis test of blood cells in 155 mM KCl medium with sDIDS activation of CFTR dependent ion channels; format: cell-based, human
# Source text: This embodiment of the invention is based on the idea of evoking a lysis of the non-defective blood cells through activation of certain ion channels of the non-defective blood cells, where through anions flow into the non defective cell, for example: Iodide (I—), bromide (Br—), chloride (Cl—), fluoride (F—), gluconate (dextronic acid-anion), rhodanate (SCN—), and taurine. In defective blood cells these CFTR dependent ion channels don't exist or are not activatable. […] Then no positive pressure can build up in the cell; the blood cells with defective CFTR, especially the blood cells of CF Patients are not subject to lysis.
# Since this CFTR dependent ion channel in non-defective blood cells allows the passage of anions such as for example: iodide, bromide, chloride, fluoride, gluconate and rhodanate as well as taurine, the differentiation between defective and non-defective blood cells can also take place in 155 mm solutions that contain iodide, bromide, fluoride, gluconate, rhodanate or taurine.
# This embodiment is carried out analogously to the example mentioned above, only the blood cells are resuspended in a solution consisting of 155 mM KCl, 10 mM HEPES-Puffer (pH 7.4) and 100 μM sDIDS. This solution is incubated for 60 min under agitation at 37° C. and afterwards the released hemoglobin in the solution is determined.
# Through the selected conditions of the preferred embodiment of the method according to the invention, chloride ions flow into non-defective blood cells via the anion channel activated by sDIDS into the blood cell. That leads to the accumulation of chloride ions in the blood cell and the water influx associated ion influx leads the good blood cell to burst. The hemolysis can be detected photometrically. This procedure may also be carried out with 10 mM HEPES-buffered solution (pH 7,4), that contains 155 mM iodide, bromide, fluoride, gluconate, or rhodanate as anions.
# [2] = aqueous solution, room temperature; cited from earlier work
# [3] = system: blood cells (reticulocytes and young erythrocytes); CFTR dependent ATP release; test: Hemolysis test of blood cells in 155 mM KCl medium with Gd3+ blockade of CFTR dependent volume regulation; format: cell-based, human
# Source text: A non-defective cell is able to control and regulate its cell volume by interlinking mechanisms during the influx and the efflux of ions and water under physiological conditions. In non-defective blood cells, after application of a 155 mm potassium chloride medium chloride flows into the cell, inter alia through the CFTR. In one embodiment, the invention is based on the idea to inhibit the regulatory volume decrease (RVD) by influencing—for example by blockade—the CFTR-dependent ATP-transporting channels expressed in the cytomembrane. […] This is especially the case with CF blood cells, which due to the CFTR defect have no influx of chloride ions and whose RVD is independent of CFTR. Therefore, no positive pressure can build up in the cell; the blood cells with defective ion channels, especially the blood cells of CF patients undergo no lysis.
# In patients suffering from mucoviscidosis with a homozygous ΔF508 mutation, the CFTR is not in the cytomembrane. With heterozygous mutations and other mutations than ΔF508, small quantities of functional CFTR can be in the membrane that transport chloride and are involved in volume regulation. The quantity of the functional CFTR molecules in the cytomembrane is inversely proportional to the severity of the illness. […] The contribution of the CFTR dependent RVD to the entire RVD is proportional to the quantity of the functional CFTR molecules within the membrane. […] Because the quantity of the functional CFTR molecules in the cytomembrane is inversely proportional to the severity of the illness in mucoviscodosis patients, the degree of the hemolysis after blockade of the CFTR dependent RVD is a measurement for the severity of the illness.
# In accordance with the invention, first blood cells are extracted from whole blood by centrifugation. […] This solution is incubated for 60 min under agitation at 37° C. and afterwards the released hemoglobin in the solution is determined. […] The hemolysis is determined by visual examination and is quantified by absorption measurement with a wave length of 546 nm. […]
# [4] = system: Calu-3 cells (human respiratory tract epithelium cell line); test: Patch-clamp, whole-cell configuration; format: cell-based; settings: Calu-3, whole-cell, -90 to +10 mV
# Experimental: During the experimental development of the test, it is shown that the observed reaction of the red blood cells can not be explained by the mechanisms known in the literature. The blood cell reactions are only explainable by the existence of a channel proteins, which is not yet known in literature.
# In the whole-cell-configuration of the patch-clamp technology, the transmembrane current of a cell is measured with a pre-determined potential. The endocellular potential was maintained for 0.5 seconds in each case at values between −90 to +10 mV and increased in 10 mV intervals (8.d). The currents arising in a cell with this voltage range are presented in 8a–8c. In 8a, the base current of an untreated cell is shown (control). Through treatment with sDIDS, the conductivity of the cytomembrane of this cell increases together with the current (8b). After sDIDS was removed from the experiment (post control), the conductivity of the cytomembrane of this cell decreases, together with the current (8c). In 8e, the current is plotted against the applied potential, so that the slope of the curve is a measurement of the conductivity.
smiles,measurement,setting,value
"Nc1ccc(CCc2ccc(N=C=S)cc2S(=O)(=O)O)c(S(=O)(=O)[O-])c1.[Na+] [4-amino-4′isothiocyanato-dihydrostilbene-2,2′-disulfonic acid, Na^+-salt]",behaviour compared with sDIDS,[1],behaves like sDIDS
"O=S(=O)([O-])c1cc(N=C=S)ccc1C=Cc1ccc(N=C=S)cc1S(=O)(=O)[O-].[Na+].[Na+] [DIDS, 4,4′-diisothiocyanato-stilbene-2,2′-disulfonic acid, sodium salt]","time of hydrolysis to 4-amino-4′-isothiocyanatostilbene-2,2′-disulfonic acid",[2],within a week
"[Cl][Gd]([Cl])[Cl] [Gd^3+, gadolinium chloride]",degree of hemolysis after Gd^3+ application,[3]; blood of 22 CF patients,only a slight increase
same,degree of hemolysis after addition of Gd^3+,[3]; blood of 87 healthy volunteers,unambiguous increase
same,degree of hemolysis after addition of Gd^3+,[3]; umbilical cord blood of 59 newborns,unambiguous increase
"CC(=O)Nc1ccc(C=Cc2ccc(N=C=S)cc2S(=O)(=O)O)c(S(=O)(=O)O)c1 [SITS, 4-acetamido-4′-isothiocyanato-stilbene-2,2′-disulfonic acid]","time of hydrolysis to 4-amino-4′-isothiocyanatostilbene-2,2′-disulfonic acid",[2],within a week
"Nc1ccc(C=Cc2ccc(N=C=S)cc2S(=O)(=O)O)c(S(=O)(=O)O)c1 [sDIDS, 4-amino-4′-isothiocyanato-stilbene-2,2′-disulfonic acid]","activation of anion conductivity (iodide, bromide, chloride, fluoride, gluconate, rhodanate, taurine)",[1]; blood cells of CF patients,no conductivity
same,degree of hemolysis after sDIDS application,[1]; blood of 48 CF patients,only a slight increase
same,degree of hemolysis after addition of sDIDS,[1]; blood of 148 healthy volunteers,unambiguous increase
same,degree of hemolysis after addition of sDIDS,[1]; umbilical cord blood of 82 newborns,unambiguous increase
same,conductivity of the cytomembrane / current after removal (post control),[4],decreases
same,conductivity of the cytomembrane / current during treatment,[4],reversible activatibility of a conductivity; also recorded: increases
